Assay results as given in patent publication US8349893B2, “4-trimethylammonio-butyrates as CPT2 inhibitors” (Hoffmann-La Roche Inc., priority 2008, dated 2013).

Legend:
hCPT2 = molecular target: T1, hCPT2 (Homo sapiens, UniProt P23786); assay: hCPT2 inhibition (spectrophotometric DTNB CPT activity assay); format: biochemical; settings: human CPT2 expressed in P. pastoris, cell extract; carnitine 500 μM, palmitoyl-CoA 80 μM, DTNB 300 μM
T1 construct: made in house; host or cells: Pichia pastoris strain X-33 (pGAPZB/pGAPZA), crude cell-free extract
T1 sequence (P23786 26-658): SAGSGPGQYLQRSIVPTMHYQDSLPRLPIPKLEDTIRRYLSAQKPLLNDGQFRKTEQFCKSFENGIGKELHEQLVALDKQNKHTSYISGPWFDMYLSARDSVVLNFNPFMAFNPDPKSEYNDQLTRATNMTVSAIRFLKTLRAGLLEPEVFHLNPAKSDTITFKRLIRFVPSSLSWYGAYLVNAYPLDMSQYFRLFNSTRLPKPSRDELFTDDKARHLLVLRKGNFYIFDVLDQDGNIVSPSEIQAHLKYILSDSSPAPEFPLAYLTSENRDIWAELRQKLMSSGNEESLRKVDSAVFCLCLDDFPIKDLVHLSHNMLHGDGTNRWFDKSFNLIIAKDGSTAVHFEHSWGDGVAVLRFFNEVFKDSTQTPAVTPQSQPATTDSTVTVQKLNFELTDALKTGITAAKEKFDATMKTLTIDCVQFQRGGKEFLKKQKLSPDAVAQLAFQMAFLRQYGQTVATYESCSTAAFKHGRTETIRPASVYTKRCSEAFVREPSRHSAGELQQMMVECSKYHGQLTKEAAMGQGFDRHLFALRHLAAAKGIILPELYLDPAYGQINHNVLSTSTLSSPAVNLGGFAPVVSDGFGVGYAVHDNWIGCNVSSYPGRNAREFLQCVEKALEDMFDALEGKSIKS
Description: (§1) The following tests were carried out in order to determine the activity of the compounds of the present invention. Background information on the performed assays can be found in: Jackson et al., 1999, Biochem. J. 341, 483-489 and Jackson et al., 2000, J. Biol. Chem. 275, 19560-19566.
(§2) Human and rat CPT2- and liver CPT1 cDNAs, and human muscle CPT1 cDNA were subcloned in pGAPZB or pGAPZA, respectively. These plasmids were used to transform P. pastoris strain X-33 via electroporation after the preparation of electrocompetent cells. High copy number clones were selected where necessary using 0.5 or 1 mg/ml Zeocin. Cultures for activity measurements were induced for 16 h in YPD medium (1% yeast extract, 2% peptone, 2% glucose). Crude cell extracts were prepared by disrupting the cells with glass beads or French Press, depending on fermenter sizes. After centrifugation, the cell-free extracts were resuspended in cell breaking buffer (50 mM Tris, pH7.4, 100 mM KCl, 1 mM EDTA) in the presence of a protease inhibitor cocktail, before aliquoting and freezing at −20° C.
(§3) CPT activity was measured using a spectrophotometric assay using 5,5′-dithio-bis-(2-nitrobenzoic acid) (DTNB) also called Ellman's reagent. The HS-CoA released on the formation of acylcarnitine from carnitine (500 μM) and palmitoyl-CoA (80 μM) reduced DTNB (300 μM) forming 5-mercapto-2-nitrobenzoic acid which absorbed at 410 nm with a molar extinction coefficient of 13600 M^−1 cm^−1. The assay buffer contained 120 mM KCl, 25 mM Tris, pH 7.4, 1 mM EDTA. This assay was used for the identification of CPT inhibitors, particularly/preferentially CPT2-selective inhibitors, versus the liver and muscle CPT1 isoforms.

hL-CPT1 = molecular target: T2, hL-CPT1 (Homo sapiens, UniProt P50416); assay: hL-CPT1 inhibition (spectrophotometric DTNB CPT activity assay); format: biochemical; settings: human liver CPT1 expressed in P. pastoris, cell extract; carnitine 500 μM, palmitoyl-CoA 80 μM, DTNB 300 μM
T2 construct: made in house; host or cells: Pichia pastoris strain X-33 (pGAPZB/pGAPZA), crude cell-free extract
T2 sequence (P50416 1-773): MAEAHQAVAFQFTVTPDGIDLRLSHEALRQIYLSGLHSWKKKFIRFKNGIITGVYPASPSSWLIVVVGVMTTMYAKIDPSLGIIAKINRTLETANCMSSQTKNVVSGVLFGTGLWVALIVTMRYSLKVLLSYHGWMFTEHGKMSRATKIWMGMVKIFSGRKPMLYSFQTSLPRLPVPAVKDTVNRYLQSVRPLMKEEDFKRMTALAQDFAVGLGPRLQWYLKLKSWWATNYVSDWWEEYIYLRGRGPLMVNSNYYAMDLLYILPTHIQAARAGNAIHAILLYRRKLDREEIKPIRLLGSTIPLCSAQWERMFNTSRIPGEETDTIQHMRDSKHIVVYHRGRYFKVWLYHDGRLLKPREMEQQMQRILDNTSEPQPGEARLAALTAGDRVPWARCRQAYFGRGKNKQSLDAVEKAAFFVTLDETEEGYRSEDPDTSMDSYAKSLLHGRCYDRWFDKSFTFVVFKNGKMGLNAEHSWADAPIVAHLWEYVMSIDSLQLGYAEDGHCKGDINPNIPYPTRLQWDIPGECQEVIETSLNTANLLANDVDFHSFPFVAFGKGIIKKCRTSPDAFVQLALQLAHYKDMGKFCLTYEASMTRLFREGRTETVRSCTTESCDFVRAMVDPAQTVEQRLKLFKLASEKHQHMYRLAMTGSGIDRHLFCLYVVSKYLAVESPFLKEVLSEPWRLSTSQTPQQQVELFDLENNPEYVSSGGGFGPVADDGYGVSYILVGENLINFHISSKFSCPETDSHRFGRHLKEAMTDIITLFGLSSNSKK
Description: as §1, §2, §3

IC50 (hCPT2)	IC50 (hL-CPT1)	Structure (SMILES)
125 nM	3070 nM	C[N+](C)(C)C[C@@H](CC(=O)[O-])NC(=O)CCCCCCCCCc1ccc(C(F)(F)F)cc1 [Example 25, (R)-4-Trimethylammonio-3-[10-(4-trifluoromethyl-phenyl)-decanoylamino]-butyrate]
486 nM	6080 nM	C[N+](C)(C)C[C@@H](CC(=O)[O-])NC(=O)CCCCCCCCCCc1ccccc1 [Example 33, (R)-3-(11-Phenyl-undecanoylamino)-4-trimethylammonio-butyrate]
16.6 nM	427 nM	C[N+](C)(C)C[C@@H](CC(=O)[O-])NC(=O)CCCCCCCCCCCc1ccccc1 [Example 34, (R)-3-(12-Phenyl-dodecanoylamino)-4-trimethylammonio-butyrate]
14.5 nM	621 nM	C[N+](C)(C)C[C@@H](CC(=O)[O-])NC(=O)CCCCCCCCCc1ccccc1 [Example 18, (R)-3-(10-Phenyl-decanoylamino)-4-trimethylammonio-butyrate]
298 nM	1120 nM	C[N+](C)(C)C[C@@H](CC(=O)[O-])NC(=O)CCCCCCCOCc1ccc(F)cc1F [Example 3, (R)-3-[8-(2,4-Difluoro-benzyloxy)-octanoylamino]-4-trimethylammonio-butyrate]
246 nM	2370 nM	C[N+](C)(C)C[C@@H](CC(=O)[O-])NC(=O)CCCCCCCCc1ccccc1 [Example 32, (R)-3-(9-Phenyl-nonanoylamino)-4-trimethylammonio-butyrate]
41 nM	> 10000 nM	C[N+](C)(C)C[C@@H](CC(=O)[O-])NC(=O)CCCCCCCOCc1cccc2ccccc12 [Example 12, (R)-3-[8-(Naphthalen-1-ylmethoxy)-octanoylamino]-4-trimethylammonio-butyrate]
21.2 nM	3980 nM	C[N+](C)(C)C[C@@H](CC(=O)[O-])NC(=O)CCCCCCCCCc1cccc2ccccc12 [Example 24, (R)-3-(10-Naphthalen-1-yl-decanoylamino)-4-trimethylammonio-butyrate]
29.4 nM	3250 nM	C[N+](C)(C)C[C@@H](CC(=O)[O-])NC(=O)CCCCCCCOCc1cccc(F)c1 [Example 15, (R)-3-[8-(3-Fluoro-benzyloxy)-octanoylamino]-4-trimethylammonio-butyrate]
8.1 nM	1820 nM	C[N+](C)(C)C[C@@H](CC(=O)[O-])NC(=O)CCCCCCCCCc1cccc(F)c1 [Example 26, (R)-3-[10-(3-Fluoro-phenyl)-decanoylamino]-4-trimethylammonio-butyrate]
1.2 nM	1090 nM	C[N+](C)(C)C[C@@H](CC(=O)[O-])NC(=O)CCCCCCCOCc1ccc(-c2ccccc2)cc1 [Example 9, (R)-3-[8-(Biphenyl-4-ylmethoxy)-octanoylamino]-4-trimethylammonio-butyrate]
20.2 nM	854 nM	C[N+](C)(C)C[C@@H](CC(=O)[O-])NC(=O)CCCCCCCCCc1ccsc1 [Example 28, (R)-3-(10-Thiophen-3-yl-decanoylamino)-4-trimethylammonio-butyrate]
538 nM	1380 nM	C[N+](C)(C)C[C@@H](CC(=O)[O-])NC(=O)CCCCCCCc1ccccc1 [Example 31, (R)-3-(8-phenyl-octanoylamino)-4-trimethylammonio-butyrate]
53.7 nM	7190 nM	COc1ccc(COCCCCCCCC(=O)N[C@H](CC(=O)[O-])C[N+](C)(C)C)cc1 [Example 8, (R)-3-[8-(4-Methoxy-benzyloxy)-octanoylamino]-4-trimethylammonio-butyrate]
32.1 nM	4340 nM	C[N+](C)(C)C[C@@H](CC(=O)[O-])NC(=O)CCCCCCCOCc1ccc(C(F)(F)F)cc1 [Example 6, (R)-3-[8-(4-Trifluoromethyl-benzyloxy)-octanoylamino]-4-trimethylammonio-butyrate]
73.2 nM	2190 nM	C[N+](C)(C)C[C@@H](CC(=O)[O-])NC(=O)CCCCCCCOCc1ccc(F)c(F)c1 [Example 1, (R)-3-[8-(3,4-Difluoro-benzyloxy)-octanoylamino]-4-trimethylammonio-butyrate]
32.3 nM	2250 nM	C[N+](C)(C)C[C@@H](CC(=O)[O-])NC(=O)CCCCCCCOCc1ccc(C(F)(F)F)c(F)c1 [Example 7, (R)-3-[8-(3-Fluoro-4-trifluoromethyl-benzyloxy)-octanoylamino]-4-trimethylammonio-butyrate]
125 nM	5630 nM	C[N+](C)(C)C[C@@H](CC(=O)[O-])NC(=O)CCCCCCCOCc1cc(F)ccc1F [Example 2, (R)-3-[8-(2,5-Difluoro-benzyloxy)-octanoylamino]-4-trimethylammonio-butyrate]
